From patent US5789434A, “Derivatives of substituted 4-biarylbutyric acid as matrix metalloprotease inhibitors” (priority 1995, dated 1998) come the findings set out here.

The inhibition is the share of the control response that was lost under treatment. One may read the IC50 as the concentration at which inhibition is half-maximal.

Structures are written as SMILES. Where a name gives a salt, the structure may show the parent alone.

T1 sequence (P08254 100-274 limits assumed): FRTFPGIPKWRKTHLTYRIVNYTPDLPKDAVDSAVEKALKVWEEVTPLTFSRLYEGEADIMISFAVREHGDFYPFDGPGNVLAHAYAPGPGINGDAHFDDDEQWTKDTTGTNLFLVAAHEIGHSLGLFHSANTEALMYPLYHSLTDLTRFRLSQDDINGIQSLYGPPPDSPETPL

One experiment concerns the target T1, MMP-3 (Homo sapiens, UniProt P08254).
T1 construct: Truncated Prostromelysin-257 was expressed in a soluble form in E.coli; made in house; host or cells: E. coli
The experiment is described as follows: Primary Thiopeptilide MMP-3 Inhibition Assay. The following applies: at 5 μM; read-out: MMP-3 Thiopep. % inhibition. It counts as biochemical.
Experimental: Enzyme: recombinant stromelysin expressed in E.coli and purified as described above. […] The protocols for the assay of compounds as stromelysin inhibitors was the same as that used for MMP-9 except that the assay buffer was 50 mM MES, pH 6.5 containing 150 mM NaCl, 10 mM CaCl2, 0.005% Brij, and 1% DMSO.
`CC(C)CC1CC(c2ccc(-c3ccc(Cl)cc3)cc2)OC1=O` (stereo not shown) [Example 35, 2(3H)-Furanone, 5-(4'-chloro[1,1'-biphenyl]-4-yl)dihydro-3-(2-methylpropyl)-, reference compound]: the inhibition at 5 µM worked out at 0%.
In the case of `CCN(CC)CCC(CC(=O)c1ccc(-c2ccc(Cl)cc2)cc1)C(=O)O` (stereo not drawn) [Example 264, [1,1'-Biphenyl]-4-butanoic acid, 4'-chloro-α-[2-(diethylamino)ethyl]-γ-oxo-, hydrochloride], the inhibition at 5 µM came to 48%.
With `CC(CC(=O)c1ccc(-c2ccc(Cl)cc2)cc1)(Sc1ccccc1)C(=O)O` (stereo not drawn) [Example 245, [1,1'-Biphenyl]-4-butanoic acid, 4'-chloro-α-methyl-γ-oxo-α-(phenylthio)-], the inhibition at 5 µM was found to be 55%.
For the compound `CCCCCCCCCCC(CC(=O)c1ccc(-c2ccc(Cl)cc2)cc1)C(=O)O` (stereo not drawn) [Example 123, [1,1'-Biphenyl]-4-butanoic acid, 4'-chloro-α-decyl-γ-oxo-], the inhibition at 5 µM stood at 43%.
As for `O=C(C[C@@H](C[S+]([O-])c1ccccc1)C(=O)O)c1ccc(-c2ccc(Cl)cc2)cc1` (stereo partly drawn) [Example 246, [1,1'-Biphenyl]-4-butanoic acid, 4'-chloro-γ-oxo-α-[(phenylsulfinyl)methyl]-, stereoisomer], the inhibition at 5 µM was determined as 14%.

The experiment is the same for the next values; noted with them: pH 6.5; 13 nM stromelysin; x (n) = average of n determinations; read-out: MMP-3 Thiopep. IC50.
Regarding `COc1ccc(SCC(CC(=O)c2ccc(-c3ccc(Cl)cc3)cc2)C(=O)O)cc1` (stereo not drawn) [Example 206, [1,1'-Biphenyl]-4-butanoic acid, 4'-chloro-α-[[(4-methoxyphenyl)thio]methyl]-γ-oxo-], the concentration for half-maximal inhibition (IC50) was found to be 950 nM.
`O=C(C[C@H](C[S+]([O-])c1ccccc1)C(=O)O)c1ccc(-c2ccc(Cl)cc2)cc1` (stereo partly drawn) [Example 249, [1,1'-Biphenyl]-4-butanoic acid, 4'-chloro-γ-oxo-α-[(phenylsulfinyl)methyl]-, stereoisomer]: the IC50 was 1600 nM.
Still for that read-out and setting: to `O=C(CC(CCc1ccccc1I)C(=O)O)c1ccc(-c2ccc(Cl)cc2)cc1` (stereo not drawn) [Example 126, [1,1'-Biphenyl]-4-butanoic acid, 4'-chloro-α-[2-(2-iodophenyl)ethyl]-γ-oxo-] belongs 600 nM; to `CCCCCCCC(CC(=O)c1ccc(-c2ccc(Cl)cc2)cc1)C(=O)O` (stereo not drawn) [Example 122, [1,1'-Biphenyl]-4-butanoic acid, 4'-chloro-α-hepty-γ-oxo-], 403 nM.
On to `COC(=O)c1ccc(SCC(CC(=O)c2ccc(-c3ccc(Cl)cc3)cc2)C(=O)O)cc1` (stereo not drawn) [Example 237, [1,1'-Biphenyl]-4-butanoic acid, 4'-chloro-α-[[[4-(methoxycabonyl)phenyl]thio]methyl]-γ-oxo-], for which the IC50 is 2000 nM.
For `COC(=O)c1ccccc1CCC(CC(=O)c1ccc(-c2ccc(Cl)cc2)cc1)C(=O)O` (stereo not drawn) [Example 142, [1,1'-Biphenyl]-4-butanoic acid, 4'-chloro-α-[2-[2-(methoxycarbonyl)phenyl]ethyl]-γ-oxo-], the IC50 was determined as 310 nM.
Turning to `O=C(CC(CSc1cccc(C(F)(F)F)c1)C(=O)O)c1ccc(-c2ccc(Cl)cc2)cc1` (stereo not drawn) [Example 236, [1,1'-Biphenyl]-4-butanoic acid, 4'-chloro-γ-oxo-α-[[[3-(trifluoromethyl)phenyl]thio]methyl]-], the IC50 was 2000 nM.
In the case of `O=C(C[C@H](C[S+]([O-])c1ccccc1)C(=O)O)c1ccc(-c2ccc(Cl)cc2)cc1` (stereo partly drawn) [Example 248, [1,1'-Biphenyl]-4-butanoic acid, 4'-chloro-γ-oxo-α-[(phenylsulfinyl)methyl]-, stereoisomer], the IC50 was determined as 830 nM.
In the case of `O=C(O)Cc1ccc(SCC(CC(=O)c2ccc(-c3ccc(Cl)cc3)cc2)C(=O)O)cc1` (stereo not drawn) [Example 238, [1,1'-Biphenyl]-4-butanoic acid, α-[[[4-(carboxymethyl)phenyl]thio]methyl]-4'-chloro-γ-oxo-], the IC50 was determined as 920 nM.

The target of another experiment is T2, MMP-9 (Homo sapiens, UniProt P14780).
T2 construct: from tissue; host or cells: human polymorphonuclear leukocytes (PMN) from whole blood (New York Blood Center), PMA-stimulated supernatant
T2 sequence (P14780 107-707 limits assumed): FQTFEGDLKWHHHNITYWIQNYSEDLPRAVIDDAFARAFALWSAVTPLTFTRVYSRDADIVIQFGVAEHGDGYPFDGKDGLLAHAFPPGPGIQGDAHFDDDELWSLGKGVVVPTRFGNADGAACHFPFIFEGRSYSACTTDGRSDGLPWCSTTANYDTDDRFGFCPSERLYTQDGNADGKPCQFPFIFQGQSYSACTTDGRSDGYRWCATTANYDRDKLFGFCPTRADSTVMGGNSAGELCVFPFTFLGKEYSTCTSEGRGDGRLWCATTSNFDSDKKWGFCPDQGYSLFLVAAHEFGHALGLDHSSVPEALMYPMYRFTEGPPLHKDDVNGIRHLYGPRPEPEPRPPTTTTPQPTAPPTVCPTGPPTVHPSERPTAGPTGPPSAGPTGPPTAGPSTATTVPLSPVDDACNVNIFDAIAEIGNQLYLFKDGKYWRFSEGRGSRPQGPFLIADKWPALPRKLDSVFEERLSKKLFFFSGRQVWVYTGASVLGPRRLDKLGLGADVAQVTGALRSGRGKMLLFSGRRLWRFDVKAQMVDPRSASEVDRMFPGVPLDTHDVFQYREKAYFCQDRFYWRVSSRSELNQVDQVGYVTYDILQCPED
The experiment is described as follows: Thiopeptilide MMP-9 Inhibition Assay. It is filed as biochemical. The following applies: at 5 μM; read-out: MMP-9: Thiopep. % inhibition.
Turning to `O=C(C[C@@H](CSc1ccccc1)C(=O)O)c1ccc(-c2ccc(Cl)cc2)cc1` [Example 198, 4-[4-(4-chlorophenyl)phenyl]-4-oxo-2R-(phenylthiomethyl)butanoic acid], the inhibition at 5 µM was 21%.

Still in this experiment, the particulars now being: pH 6.5; x (n) = average of n determinations; read-out: MMP-9: Thiopep. IC50.
With `COc1ccc(SCC(CC(=O)c2ccc(-c3ccc(Cl)cc3)cc2)C(=O)O)cc1` (stereo not drawn) [Example 206, [1,1'-Biphenyl]-4-butanoic acid, 4'-chloro-α-[[(4-methoxyphenyl)thio]methyl]-γ-oxo-], the IC50 came out at 417 nM.
